{
  "source": "patent US20160272937A1",
  "about": "“METHODS OF GENERATING INTERMEDIATE MESODERM CELLS FROM HUMAN PLURIPOTENT STEM CELLS” (THE BRIGHAM AND WOMEN'S HOSPITAL, INC., priority 2013, published 2016)",
  "tested_on": "CHIR-induced hPSCs",
  "experiment": "Growth factor screen for PAX2 induction in CHIR-induced mesendodermal cells (immunostaining)",
  "type": "cell-based, human",
  "conditions": "day 4",
  "protocol": "For immunofluorescence studies, cultures are washed once with PBS (Invitrogen) and fixed in 4% paraformaldehyde for 15 min at room temperature (RT). Fixed cells are then washed three times in PBS and incubated in blocking buffer (0.3% Triton X-100 (Fisher Scientific) and 5% normal donkey serum (EMD Millipore) in PBS) for 1 hour at RT.\nThe cells are then incubated with primary antibody overnight at 4° C. or for 2 hours at RT in antibody dilution buffer (0.3% Triton X-100 and 1% BSA (Roche) in PBS). Cells are then washed three times in PBS and incubated with Alexa Fluor 488-, 555-, or 647-conjugated secondary antibodies (1:500) (Molecular Probes) in antibody dilution buffer for 1 hour at RT. For immunostaining with Biotinylated Lotus Tetragonolobus Lectin (LTL, Vector Labs), a Streptavidin/Biotin Blocking Kit (Vector Labs) and Alexa Fluor 488- or 647-conjugated Streptavidin (Molecular Probes) were used according to manufacturer's instructions.\nNuclei can be counterstained with DAPI (Sigma). […] Immunofluorescence is visualized using an inverted fluorescence microscope (Nikon Eclipse Ti, Tokyo, Japan). Quantification is performed by counting a minimum of five random fields at 10× magnification.\nPAX2 is selected since it is an early marker of IM, and, unlike the markers OSR1 or LHX1 which are also expressed in the adjacent lateral plate mesoderm, PAX2 expression is restricted in mesoderm to the IM.",
  "data": [
    {"molecule": "FGF2: fibroblast growth factor-2", "values": [
      {"measurement": "cells positive for PAX2 by immunostaining", "setting": "CHIR 24 hours then FGF2 100 ng/mL", "result": "50-60%"},
      {"measurement": "PAX2 expression", "setting": "FGF2 added to hPSCs not initially induced with CHIR", "result": "absence of PAX2 expression"}
    ]},
    {"molecule": "BMP-4: candidate growth factor screened for PAX2 induction (protein, UniProt P12644 293-408, looked up) Bone morphogenetic protein 4: SPKHHSQRARKKNKNCRRHSLYVDFSDVGWNDWIVAPPGYQAFYCHGDCPFPLADHLNSTNHAIVQTLVNSVNSSIPKACCVPTELSAISMLYLDEYDKVVLKNYQEMVVEGCGCR", "values": [
      {"measurement": "PAX2 expression", "setting": "CHIR 24 hours then increasing doses of factor", "result": "no PAX2 expression"}
    ]}
  ]
}
